From patent publication US11952368B2, “FAPI dimer compound, FAPI dimer-based positron emission tomography (PET) imaging agent for tumor diagnosis, and preparation method and use thereof” (XIAMEN UNIVERSITY, priority 2021, dated 2024)

Molecular target: T1, FAP on CAFs (Homo sapiens, UniProt Q12884)
T1 construct: FAP-expressing CAFs were inoculated in a 24-well plate; endogenous in cells; host or cells: cancer-associated fibroblasts (CAFs)
T1 sequence (Q12884 1-760): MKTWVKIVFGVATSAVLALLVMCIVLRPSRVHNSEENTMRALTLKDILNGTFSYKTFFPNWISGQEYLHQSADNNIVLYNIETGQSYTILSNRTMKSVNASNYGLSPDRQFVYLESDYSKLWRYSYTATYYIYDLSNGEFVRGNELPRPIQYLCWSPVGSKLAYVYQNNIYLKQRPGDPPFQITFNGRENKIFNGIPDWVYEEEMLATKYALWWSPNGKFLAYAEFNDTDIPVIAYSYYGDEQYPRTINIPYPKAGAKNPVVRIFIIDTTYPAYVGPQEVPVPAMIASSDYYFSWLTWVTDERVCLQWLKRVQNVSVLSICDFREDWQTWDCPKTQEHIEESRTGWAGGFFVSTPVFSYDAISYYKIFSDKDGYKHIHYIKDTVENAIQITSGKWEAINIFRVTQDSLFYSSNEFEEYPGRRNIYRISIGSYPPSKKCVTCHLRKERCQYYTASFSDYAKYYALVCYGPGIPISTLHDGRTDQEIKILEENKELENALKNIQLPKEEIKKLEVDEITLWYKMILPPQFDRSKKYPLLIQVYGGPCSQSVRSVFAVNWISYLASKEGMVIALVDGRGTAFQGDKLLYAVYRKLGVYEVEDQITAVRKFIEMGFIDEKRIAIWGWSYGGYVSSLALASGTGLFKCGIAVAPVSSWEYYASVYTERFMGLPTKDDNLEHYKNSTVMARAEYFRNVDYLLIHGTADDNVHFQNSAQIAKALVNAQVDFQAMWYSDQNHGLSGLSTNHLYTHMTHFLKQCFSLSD
Assay: FAP binding assay (radioligand competition) on CAFs
Description: FAP-expressing CAFs were inoculated in a 24-well plate and cultivated with a 10% (volume fraction) FBS-containing 1640 medium for 48 h before the experiment until a cell density was about 80% to 90%; the medium was changed to an FBS-free 1640 medium; and the ^68Ga-2PEG(3)-FAPI-dimer, ^68Ga-FAPI-46, or ^68Ga-2PEG(3)-FAPI-dimer+11.3 nmol FAPI-46 (for the blocking experiment) was added to the 24-well plate and incubated, with predetermined intervals of 10 min, 30 min, 60 min, 90 min, and 120 min. The FAP binding assay was conducted after a radiolabeled compound and a corresponding unlabeled FAPI derivative (1.27×10^−4-10^−13 mol/L of 2PEG(3)-FAPI-dimer was added to ^68Ga-2PEG(3)-FAPI-dimer; and 2.83×10^−4-1×10^−13 mol/L of FAPI-46 was added to ^68Ga-FAPI-46) were co-incubated for 60 min. A half-inhibitory concentration (IC50s) was calculated by using GraphPad Prism to fit data through nonlinear regression. In each step of the experiment, cells were washed twice with 1 mL of PBS. Finally, CAFs were lysed with 0.5 mL of a 1 mol/L NaOH aqueous solution to conduct radioactive counting with a gamma counter. 3 parallel replicates were set for each experiment.

IC50 value compared with FAPI-46: similar
SMILES: CN(CCCN1CCN(C(=O)COCCOCCOCCNC(=O)CCC(=O)N[C@@H](CCCCNC(=O)CN2CCN(CC(=O)O)CCN(CC(=O)O)CCN(CC(=O)O)CC2)C(=O)NCCOCCOCCOCC(=O)N2CCN(CCCN(C)c3ccc4nccc(C(=O)NCC(=O)N5CC(F)(F)C[C@H]5C#N)c4c3)CC2)CC1)c1ccc2nccc(C(=O)NCC(=O)N3CC(F)(F)C[C@H]3C#N)c2c1 [2PEG(3)-FAPI-dimer]
